Inhibition data for two compounds are collected here from ChEMBL document CHEMBL4385643, “Design of a brain-penetrant CDK4/6 inhibitor for glioblastoma” (Bioorg Med Chem Lett, 2019).

Test [1] concerns the target Tyrosine-protein kinase ABL1 (Homo sapiens) (UniProt P00519). The test is described as follows: Inhibition of recombinant full length human His-tagged ABL1 expressed in baculovirus expression system at 0.1 uM using tyrosine-2 peptide as substrate incubated for 60 mins by Z'-LYTE assay relative to control.
For test [2], the target named is Serine/threonine-protein kinase BRSK1 (Homo sapiens) (UniProt Q8TDC3). As to the kind of experiment: Inhibition of recombinant full length human GST-tagged BRSK1 expressed in baculovirus expression system at 0.1 uM using serine/threonine-21 peptide as substrate incubated for 60 mins by Z'-LYTE assay relative to control.
Test [3] has as its target Protein-tyrosine kinase 6 (Homo sapiens) (UniProt Q13882). As to the kind of experiment: Inhibition of recombinant full length human His-tagged BRK expressed in baculovirus expression system at 0.1 uM using tyrosine-1 peptide as substrate incubated for 60 mins by Z'-LYTE assay relative to control.
For test [4], the target named is Calcium/calmodulin-dependent protein kinase kinase 1 (Homo sapiens) (UniProt Q8N5S9). As to the kind of experiment: Inhibition of tracer 236 binding to recombinant human GST-tagged CAMKK1 expressed in Escherichia coli expression system at 0.1 uM measured after 60 mins by Lanthascreen assay relative to control. A general note: In TR-FRET formats the signal depends on donor and acceptor labels being close together.

Test [5] concerns the target Serine/threonine-protein kinase Chk2 (Homo sapiens) (UniProt O96017). As to the kind of experiment: Inhibition of recombinant full length human His-tagged CHK2 expressed in baculovirus expression system at 0.1 uM using serine/threonine-07 peptide as substrate incubated for 60 mins by Z'-LYTE assay relative to control.
The target of test [6] is Dual specificity protein kinase CLK3 (Homo sapiens) (UniProt P49761). The test is described as follows: Inhibition of recombinant full length human GST-tagged CLK3 expressed in Baculovirus expression system at 0.1 uM using serine/threonine-18 peptide as substrate incubated for 60 mins by Z'-LYTE assay relative to control.
Test [7] has as its target Epithelial discoidin domain-containing receptor 1 (Homo sapiens) (UniProt Q08345). The test is described as follows: Inhibition of tracer 178 binding to recombinant human GST-tagged DDR1 catalytic domain (440 to 876 residues) expressed in baculovirus expression system at 0.1 uM measured after 60 mins by Lanthascreen assay relative to control.
Test [8] has as its target Dual specificity tyrosine-phosphorylation-regulated kinase 4 (Homo sapiens) (UniProt Q9NR20). As to the kind of experiment: Inhibition of recombinant full length human GST-tagged DYRK4 expressed in baculovirus expression system at 0.1 uM using serine/threonine-9 peptide as substrate incubated for 60 mins by Z'-LYTE assay relative to control.
For test [9], the target named is Ephrin type-B receptor 1 (Homo sapiens) (UniProt P54762). The test is described as follows: Inhibition of recombinant human GST-tagged EPHB1 catalytic domain (613 to 881 residues) expressed in baculovirus expression system at 0.1 uM using tyrosine-2 peptide as substrate incubated for 60 mins by Z'-LYTE assay relative to control.
Test [10] concerns the target Tyrosine-protein kinase Fgr (Homo sapiens) (UniProt P09769). The test is described as follows: Inhibition of recombinant full length human His-tagged FGR expressed in baculovirus expression system at 0.1 uM using tyrosine-2 peptide as substrate incubated for 60 mins by Z'-LYTE assay relative to control.
For test [11], the target named is Receptor-type tyrosine-protein kinase FLT3 (Homo sapiens) (UniProt P36888). As to the kind of experiment: Inhibition of recombinant human His-tagged FLT3 catalytic domain (564 to 958 residues) expressed in baculovirus expression system at 0.1 uM using tyrosine-2 peptide as substrate incubated for 60 mins by Z'-LYTE assay relative to control.
Test [12] has as its target G protein-coupled receptor kinase 5 (Homo sapiens) (UniProt P34947). The test is described as follows: Inhibition of recombinant full length human GST-tagged GRK5 expressed in baculovirus expression system at 0.1 uM using serine/threonine-16 peptide as substrate incubated for 60 mins by Z'-LYTE assay relative to control.
Test [13] addresses Mitogen-activated protein kinase 10 (Homo sapiens) (UniProt P53779). As to the kind of experiment: Inhibition of recombinant full length human GST-tagged JNK3 expressed in baculovirus expression system at 0.1 uM using serine/threonine-4 peptide as substrate incubated for 60 mins by Z'-LYTE assay relative to control.
Test [14] concerns the target Vascular endothelial growth factor receptor 2 (Homo sapiens) (UniProt P35968). As to the kind of experiment: Inhibition of recombinant human His-tagged KDR (789 to 1356 residues) expressed in baculovirus expression system at 0.1 uM using tyrosine-1 peptide as substrate incubated for 60 mins by Z'-LYTE assay relative to control.
The target of test [15] is MAP kinase-interacting serine/threonine-protein kinase 1 (Homo sapiens) (UniProt Q9BUB5). The test is described as follows: Inhibition of recombinant full length human GST-tagged MKNK1 expressed in insect expression system at 0.1 uM using serine/threonine-7 peptide as substrate incubated for 60 mins by Z'-LYTE assay relative to control.
Test [16] addresses Ribosomal protein S6 kinase alpha-5 (Homo sapiens) (UniProt O75582). The test is described as follows: Inhibition of recombinant full length human GST-tagged MSK1 expressed in baculovirus expression system at 0.1 uM using serine/threonine-1 peptide as substrate incubated for 60 mins by Z'-LYTE assay relative to control.
Test [17] addresses Protein kinase C theta type (Homo sapiens) (UniProt Q04759). As to the kind of experiment: Inhibition of recombinant full length human His-tagged PKCtheta expressed in baculovirus expression system at 0.1 uM using serine/threonine-7 peptide as substrate incubated for 60 mins by Z'-LYTE assay relative to control.
The target of test [18] is Rho-associated protein kinase 1 (Homo sapiens) (UniProt Q13464). As to the kind of experiment: Inhibition of recombinant human GST-tagged ROCK1 catalytic domain (1 to 535 amino acids) expressed in baculovirus expression system at 0.1 uM using serine/threonine-7 peptide as substrate incubated for 60 mins by Z'-LYTE assay relative to control.
In test [19] the target is Proto-oncogene tyrosine-protein kinase ROS (Homo sapiens) (UniProt P08922). The test is described as follows: Inhibition of recombinant human GST-tagged ROS1 catalytic domain (1883 to 2347 residues) expressed in baculovirus expression system at 0.1 uM using tyrosine-2 peptide as substrate incubated for 60 mins by Z'-LYTE assay relative to control.
Test [20] deals with Serine/threonine-protein kinase 16 (Homo sapiens) (UniProt O75716). The test is described as follows: Inhibition of tracer 236 binding to recombinant full length human His-tagged STK16 expressed in baculovirus expression system at 0.1 uM measured after 60 mins by Lanthascreen assay relative to control.
Another test deals with TAK1/TAB1 (Homo sapiens) (UniProt Q15750+O43318). The test is described as follows: Inhibition of tracer 222 binding to recombinant human His-tagged TAK1-TAB1 catalytic domain (437 to 504 residues) expressed in baculovirus expression system at 0.1 uM measured after 60 mins by Lanthascreen assay relative to control.
In test [21] the target is Tyrosine-protein kinase Tec (Homo sapiens) (UniProt P42680). The test is described as follows: Inhibition of tracer 178 binding to recombinant full length human His-tagged TEC expressed in baculovirus expression system at 0.1 uM measured after 60 mins by Lanthascreen assay.
The target of test [22] is Mitogen-activated protein kinase 11 (Homo sapiens) (UniProt Q15759). The test is described as follows: Inhibition of recombinant full length human His-tagged p38beta expressed in baculovirus expression system at 0.1 uM using serine/threonine-15 peptide as substrate incubated for 60 mins by Z'-LYTE assay relative to control.

Sequence of Dual specificity protein kinase CLK3 (Homo sapiens) (P49761 whole entry, looked up, the tested form may be a part): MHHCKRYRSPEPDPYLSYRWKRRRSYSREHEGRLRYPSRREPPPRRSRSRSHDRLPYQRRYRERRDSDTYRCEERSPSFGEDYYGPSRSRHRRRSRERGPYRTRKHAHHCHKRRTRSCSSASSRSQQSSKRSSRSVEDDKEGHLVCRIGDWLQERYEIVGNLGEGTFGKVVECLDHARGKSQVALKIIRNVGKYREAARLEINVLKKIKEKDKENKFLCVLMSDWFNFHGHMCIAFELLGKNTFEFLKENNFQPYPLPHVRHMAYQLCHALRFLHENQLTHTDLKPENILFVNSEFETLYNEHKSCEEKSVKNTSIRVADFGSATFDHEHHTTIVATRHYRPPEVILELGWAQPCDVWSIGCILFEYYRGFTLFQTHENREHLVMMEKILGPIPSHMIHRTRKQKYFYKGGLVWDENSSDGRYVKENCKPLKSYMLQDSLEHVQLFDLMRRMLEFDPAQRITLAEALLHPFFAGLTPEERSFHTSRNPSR
Sequence of Dual specificity tyrosine-phosphorylation-regulated kinase 4 (Homo sapiens) (Q9NR20 whole entry, the tested form may be a part): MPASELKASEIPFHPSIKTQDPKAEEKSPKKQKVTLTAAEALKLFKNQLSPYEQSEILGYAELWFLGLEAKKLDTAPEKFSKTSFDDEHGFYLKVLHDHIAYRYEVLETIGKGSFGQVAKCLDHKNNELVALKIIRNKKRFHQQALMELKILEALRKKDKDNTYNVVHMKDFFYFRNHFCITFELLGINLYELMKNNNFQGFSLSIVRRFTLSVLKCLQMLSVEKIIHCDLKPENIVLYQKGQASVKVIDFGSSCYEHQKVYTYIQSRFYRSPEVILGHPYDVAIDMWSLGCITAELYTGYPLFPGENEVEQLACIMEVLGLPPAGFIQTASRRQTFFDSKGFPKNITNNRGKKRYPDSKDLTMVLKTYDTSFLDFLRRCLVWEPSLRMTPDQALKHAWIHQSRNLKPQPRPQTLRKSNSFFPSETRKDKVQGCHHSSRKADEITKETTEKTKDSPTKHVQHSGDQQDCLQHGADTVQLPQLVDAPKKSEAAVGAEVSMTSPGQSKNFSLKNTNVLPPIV
Sequence of Protein-tyrosine kinase 6 (Homo sapiens) (Q13882 whole entry, looked up): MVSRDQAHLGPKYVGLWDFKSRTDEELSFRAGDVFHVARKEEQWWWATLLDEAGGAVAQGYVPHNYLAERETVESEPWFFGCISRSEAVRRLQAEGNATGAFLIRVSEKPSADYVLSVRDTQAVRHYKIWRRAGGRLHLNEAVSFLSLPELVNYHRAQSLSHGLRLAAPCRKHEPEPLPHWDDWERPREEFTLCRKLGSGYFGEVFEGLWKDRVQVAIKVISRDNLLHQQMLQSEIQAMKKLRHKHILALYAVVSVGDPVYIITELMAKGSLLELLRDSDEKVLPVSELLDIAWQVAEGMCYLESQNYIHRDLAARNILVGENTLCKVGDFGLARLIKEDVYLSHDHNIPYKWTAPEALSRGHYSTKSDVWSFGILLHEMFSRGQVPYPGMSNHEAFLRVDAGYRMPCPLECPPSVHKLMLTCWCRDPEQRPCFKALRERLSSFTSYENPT
Sequence of Calcium/calmodulin-dependent protein kinase kinase 1 (Homo sapiens) (Q8N5S9 whole entry, looked up): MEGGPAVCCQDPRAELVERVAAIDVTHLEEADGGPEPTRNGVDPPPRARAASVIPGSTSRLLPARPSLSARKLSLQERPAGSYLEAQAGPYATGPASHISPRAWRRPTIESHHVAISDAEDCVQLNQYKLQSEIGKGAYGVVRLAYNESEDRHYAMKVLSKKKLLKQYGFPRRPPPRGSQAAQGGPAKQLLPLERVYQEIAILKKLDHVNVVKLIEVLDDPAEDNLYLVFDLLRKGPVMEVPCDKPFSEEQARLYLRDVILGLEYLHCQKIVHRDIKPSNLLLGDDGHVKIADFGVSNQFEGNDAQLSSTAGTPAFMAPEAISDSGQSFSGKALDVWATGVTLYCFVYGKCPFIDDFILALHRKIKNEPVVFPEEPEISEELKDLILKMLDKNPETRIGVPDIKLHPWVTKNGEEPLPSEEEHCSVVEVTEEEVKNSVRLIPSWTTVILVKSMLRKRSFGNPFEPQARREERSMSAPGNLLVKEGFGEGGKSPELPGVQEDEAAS
Sequence of Ephrin type-B receptor 1 (Homo sapiens) (P54762 whole entry, the tested form may be a part): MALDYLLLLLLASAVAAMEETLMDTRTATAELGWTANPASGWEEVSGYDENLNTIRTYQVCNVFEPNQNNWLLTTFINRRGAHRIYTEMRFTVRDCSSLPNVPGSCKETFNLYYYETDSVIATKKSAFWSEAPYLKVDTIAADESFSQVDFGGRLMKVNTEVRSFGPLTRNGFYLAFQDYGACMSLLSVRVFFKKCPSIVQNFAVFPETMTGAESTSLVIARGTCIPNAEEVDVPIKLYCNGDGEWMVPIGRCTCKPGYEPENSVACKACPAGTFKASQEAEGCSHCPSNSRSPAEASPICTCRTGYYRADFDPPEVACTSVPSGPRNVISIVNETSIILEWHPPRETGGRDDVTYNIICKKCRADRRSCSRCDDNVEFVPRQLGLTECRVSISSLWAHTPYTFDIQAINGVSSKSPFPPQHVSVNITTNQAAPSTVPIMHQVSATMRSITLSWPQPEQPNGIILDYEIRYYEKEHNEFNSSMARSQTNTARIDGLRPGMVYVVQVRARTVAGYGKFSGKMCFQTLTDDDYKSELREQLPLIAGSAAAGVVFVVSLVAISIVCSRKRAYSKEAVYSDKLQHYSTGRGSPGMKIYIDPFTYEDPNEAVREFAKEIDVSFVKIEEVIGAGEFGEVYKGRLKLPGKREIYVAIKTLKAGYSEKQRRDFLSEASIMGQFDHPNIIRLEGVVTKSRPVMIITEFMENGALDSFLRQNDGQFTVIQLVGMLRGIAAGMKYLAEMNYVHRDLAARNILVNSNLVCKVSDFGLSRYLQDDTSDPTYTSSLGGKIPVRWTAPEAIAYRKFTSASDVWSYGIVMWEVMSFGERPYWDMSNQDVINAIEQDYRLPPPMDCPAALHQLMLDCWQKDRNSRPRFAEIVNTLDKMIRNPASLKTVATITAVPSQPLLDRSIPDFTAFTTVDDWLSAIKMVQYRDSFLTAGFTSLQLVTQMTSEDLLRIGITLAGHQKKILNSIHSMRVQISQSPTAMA
Sequence of Tyrosine-protein kinase Fgr (Homo sapiens) (P09769 2-529 limits assumed): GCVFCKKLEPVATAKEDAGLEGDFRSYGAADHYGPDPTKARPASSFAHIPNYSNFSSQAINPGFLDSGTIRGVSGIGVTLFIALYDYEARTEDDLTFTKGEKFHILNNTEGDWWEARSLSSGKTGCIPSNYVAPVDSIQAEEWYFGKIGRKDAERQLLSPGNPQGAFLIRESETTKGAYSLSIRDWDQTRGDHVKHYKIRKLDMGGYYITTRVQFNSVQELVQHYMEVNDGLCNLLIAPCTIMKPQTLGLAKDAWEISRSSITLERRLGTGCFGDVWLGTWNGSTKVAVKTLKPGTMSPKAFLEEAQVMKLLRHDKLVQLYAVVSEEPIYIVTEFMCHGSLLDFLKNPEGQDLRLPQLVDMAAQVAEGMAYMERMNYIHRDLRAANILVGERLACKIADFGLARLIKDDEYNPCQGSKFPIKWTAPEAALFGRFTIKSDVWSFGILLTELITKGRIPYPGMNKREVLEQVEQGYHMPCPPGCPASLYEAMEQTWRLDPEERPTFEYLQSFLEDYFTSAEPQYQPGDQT
Sequence of MAP kinase-interacting serine/threonine-protein kinase 1 (Homo sapiens) (Q9BUB5 whole entry, looked up): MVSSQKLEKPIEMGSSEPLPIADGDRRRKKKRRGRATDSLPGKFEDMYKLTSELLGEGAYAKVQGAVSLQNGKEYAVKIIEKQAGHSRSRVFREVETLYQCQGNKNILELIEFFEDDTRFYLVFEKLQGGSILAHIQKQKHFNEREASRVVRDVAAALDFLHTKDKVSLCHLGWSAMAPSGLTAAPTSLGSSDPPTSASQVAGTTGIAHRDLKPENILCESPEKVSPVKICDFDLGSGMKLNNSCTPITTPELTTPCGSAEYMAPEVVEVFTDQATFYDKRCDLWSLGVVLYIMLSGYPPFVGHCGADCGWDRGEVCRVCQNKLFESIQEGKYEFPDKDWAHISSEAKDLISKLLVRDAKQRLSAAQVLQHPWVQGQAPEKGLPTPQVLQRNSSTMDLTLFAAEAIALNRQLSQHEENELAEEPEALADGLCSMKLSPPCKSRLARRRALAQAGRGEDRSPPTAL
Sequence of Ribosomal protein S6 kinase alpha-5 (Homo sapiens) (O75582 whole entry, looked up): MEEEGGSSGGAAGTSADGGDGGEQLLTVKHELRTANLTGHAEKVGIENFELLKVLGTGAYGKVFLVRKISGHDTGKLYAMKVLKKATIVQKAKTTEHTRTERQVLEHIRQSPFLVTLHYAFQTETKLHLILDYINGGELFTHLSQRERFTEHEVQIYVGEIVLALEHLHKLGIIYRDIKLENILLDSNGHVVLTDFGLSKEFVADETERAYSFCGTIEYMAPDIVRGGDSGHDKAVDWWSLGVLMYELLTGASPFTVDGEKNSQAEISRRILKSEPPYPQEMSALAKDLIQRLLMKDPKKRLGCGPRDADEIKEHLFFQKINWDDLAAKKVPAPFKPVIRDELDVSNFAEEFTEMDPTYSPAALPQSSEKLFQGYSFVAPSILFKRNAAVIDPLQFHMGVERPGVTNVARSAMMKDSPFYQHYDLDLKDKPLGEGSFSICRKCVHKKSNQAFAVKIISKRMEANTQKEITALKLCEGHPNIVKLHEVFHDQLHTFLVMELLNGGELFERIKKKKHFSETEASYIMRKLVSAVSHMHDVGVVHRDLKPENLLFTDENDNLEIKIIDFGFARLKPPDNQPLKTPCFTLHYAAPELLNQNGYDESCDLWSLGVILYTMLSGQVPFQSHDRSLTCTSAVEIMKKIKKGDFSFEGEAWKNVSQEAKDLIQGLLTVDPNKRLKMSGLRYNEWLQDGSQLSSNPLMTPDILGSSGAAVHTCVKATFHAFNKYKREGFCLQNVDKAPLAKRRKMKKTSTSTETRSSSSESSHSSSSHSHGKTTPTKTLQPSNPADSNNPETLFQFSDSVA

A word on the inhibition: it is the percentage by which the read-out fell short of the control. As to `CCN1CCN(Cc2ccc(Nc3ncc(F)c(-c4cc(F)c5nc(C)n(C(C)C)c5c4)n3)nc2)CC1` [ABEMACICLIB], the inhibition in [1] was 1.5%; in test [2] it was 18%; in test [3], 5%; in test [4] it was 12.6%; in test [5], 0.5%; in test [6], 6.5%. Further, the inhibition in test [7] is 8.7%; in test [8], 5%; in [9] it was 0.5%; in test [10], 8.5%; in test [11] it was 35.5%; in [12], 2%. Moreover, the inhibition was determined as 59.1% in test [13]; 4.5% in [14]; 27% in test [15]; 32.5% in test [16]; 21.5% in test [17]; 18.5% in [18]. For the same compound, the inhibition in [19] was found to be 59.5%; in test [20] it was 91.5%; on TAK1/TAB1 (Homo sapiens) it was 57.1%; in test [21], 0.8%; in test [22] it was 8%.

On to `CCN1CC2(C1)CN(c1ccc(Nc3ncc(F)c(-c4cnn5c4[C@H](C)CCCC5)n3)nc1)C2`, for which the inhibition in test [1] was 3.5%; in test [2] it was 44%; in test [3], 6.5%; in test [4], 12%; in [5], 22.5%; in test [6] it was 4%. Also, the inhibition in test [7] was determined as 0%; in test [8], 3%; in [9], 8%; in test [10], 7%; in test [11] it was 59%; in [12], 3%. Further, the inhibition was determined as 66.5% in test [13]; 17.5% in [14]; 18% in [15]; 24.5% in [16]; 20.5% in test [17]; 2% in test [18]. Also, the inhibition in test [19] was 57.5%; in [20], 29.5%; at TAK1/TAB1 (Homo sapiens) it was 87.5%; in [21], 5%; in [22] it was 6%.
